Measurements reported in the supplement of paper PMC10331698.
± gives the standard deviation of the averaged measurements.

What was measured:
Experiment in all cases: level (log10 ratio to DMSO vehicle control); higher = higher biomarker level / cell amount than vehicle control
[1] = compound: CO[Si](C)(CCC(F)(F)C(F)(F)C(F)(F)C(F)(F)C(F)(F)C(F)(F)F)OC [Dimethoxymethyl((perfluorohexyl)ethyl)silane] (in DMSO)
Procedure: (§1)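 BioMAP Diversity Plus panel of 12 human primary cell co-culture systems (3C, 4H, LPS, SAg, BT, BF4T, BE3C, CASM3C, HDF3CGF, KF3CT, MyoF, Mphg). Compounds were added 1 h before stimulation and left for 24 h (MyoF 48 h; BT 72 h for soluble read-outs or 6 d for IgG). Biomarkers were read by ELISA, cytotoxicity by SRB, PBMC viability and proliferation by Alamar Blue. Each well value was divided by the mean of 8 DMSO control wells on the same plate and log10 transformed; duplicate blinded samples were tested at 4 concentrations.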

[2] = compound: C[C@@H]1C[C@H]2[C@@H]3CCC4=CC(=O)C=C[C@]4(C)[C@@]3(F)[C@@H](O)C[C@]2(C)[C@@]1(O)C(=O)COP(=O)(O)O [Dexamethasone sodium phosphate] (in DMSO)
Procedure: as §1

[3] = compound: NS(=O)(=O)C(F)(F)C(F)(F)C(F)(F)C(F)(F)C(F)(F)C(F)(F)C(F)(F)C(F)(F)F [Perfluorooctanesulfonamide] (in DMSO)
Procedure: as §1

[4] = compound: O=C(O)C(F)(OC(F)(F)C(F)(OC(F)(F)C(F)(OC(F)(F)C(F)(F)C(F)(F)F)C(F)(F)F)C(F)(F)F)C(F)(F)F [Perfluoro-(2,5,8-trimethyl-3,6,9-trioxadodecanoic)acid] (in DMSO)
Procedure: as §1

[5] = compound: O=S(=O)(O)C(F)(F)C(F)(F)C(F)(F)C(F)(F)C(F)(F)C(F)(F)C(F)(F)F [Perfluoroheptanesulfonic acid] (in DMSO)
Procedure: as §1

[6] = compound: O=S(=O)(O)CCC(F)(F)C(F)(F)C(F)(F)C(F)(F)C(F)(F)C(F)(F)C(F)(F)C(F)(F)F [8:2 Fluorotelomer sulfonic acid] (in DMSO)
Procedure: as §1

Test System	level (log10) ([1]; 6700 nM)	level (log10) ([1]; 20000 nM)	level (log10) ([2]; 1500 nM)	level (log10) ([2]; 4400 nM)	level (log10) ([2]; 13000 nM)	level (log10) ([2]; 40000 nM)	level (log10) ([3]; 6700 nM)	level (log10) ([3]; 20000 nM)	level (log10) ([4]; 1100 nM)	level (log10) ([4]; 3300 nM)	level (log10) ([4]; 10000 nM)	level (log10) ([5]; 1500 nM)	level (log10) ([5]; 4400 nM)	level (log10) ([5]; 13000 nM)	level (log10) ([5]; 40000 nM)	level (log10) ([6]; 6700 nM)	level (log10) ([6]; 20000 nM)	level (log10) ([6]; 60000 nM)
BF4T:MMP-3	0.0005 ± 0.0035	-0.015 ± 0.0099	0.0565 ± 0.083	0.006 ± 0.061	-0.03 ± 0.05	0.0185 ± 0.033	0.004 ± 0.024	0.0845 ± 0.028	-0.01 ± 0.0014	-0.01 ± 0.014	0.015 ± 0.017	0.047 ± 0.045	-0.015 ± 0.014	0.0025 ± 0.046	0.117 ± 0.028	-0.0095 ± 0.043	0.027 ± 0.034	0.0755 ± 0.0078
BF4T:MMP-9	-0.0065 ± 0.037	-0.001 ± 0.017	0.051 ± 0.041	0.026 ± 0.037	0.0035 ± 0.046	0.0225 ± 0.063	-0.006 ± 0.025	-0.113 ± 0.018	0.0045 ± 0.015	-0.003 ± 0.0028	0.0135 ± 0.00071	0.0155 ± 0.08	-0.031 ± 0.033	-0.0335 ± 0.054	-0.003 ± 0.041	0.0065 ± 0.015	-0.003 ± 0.0014	-0.0215 ± 0.005
BF4T:PAI-I	-0.008 ± 0.013	-0.0145 ± 0.0021	-0.0005 ± 0.022	0.01 ± 0.013	0.001 ± 0.018	0.0085 ± 0.0021	-0.004 ± 0.011	-0.038 ± 0.0099	0.011 ± 0.0071	-0.0025 ± 0.0092	0.006 ± 0.018	0.0205 ± 0.00071	0.01	-0.0225 ± 0.011	-0.0075 ± 0.025	0.005 ± 0.0099	0.002 ± 0.011	0.009 ± 0.0042
BF4T:SRB	-0.0055 ± 0.005	-0.0045 ± 0.005	0.0155 ± 0.0078	0.0005 ± 0.0064	0.01 ± 0.013	0.0135 ± 0.016	-0.009 ± 0.0028	-0.052	-0.0035 ± 0.00071	-0.0035 ± 0.011	0.003 ± 0.023	0.0075 ± 0.018	-0.008 ± 0.0014	-0.0125 ± 0.0021	-0.016 ± 0.021	0.0035 ± 0.015	-0.002 ± 0.013	-0.0005 ± 0.0078
BF4T:tPA	0.0005 ± 0.023	-0.015 ± 0.0028	0.0375 ± 0.05	0.01 ± 0.034	0.0145 ± 0.016	0.027 ± 0.021	-0.059 ± 0.013	0.006 ± 0.02	-0.012 ± 0.02	-0.012 ± 0.0042	-0.0035 ± 0.021	0.0235 ± 0.052	-0.0065 ± 0.0064	-0.0165 ± 0.025	0.0225 ± 0.039	-0.0045 ± 0.028	-0.0525 ± 0.0021	-0.0465 ± 0.016
BF4T:uPA	-0.0095 ± 0.00071	-0.014 ± 0.0085	0.006 ± 0.025	-0.013 ± 0.045	-0.002 ± 0.013	-0.002 ± 0.0028	0.014 ± 0.016	0.005 ± 0.034	0.008 ± 0.0028	0.0015 ± 0.0035	0.004 ± 0.0071	0.001 ± 0.018	-0.0035 ± 0.012	-0.017 ± 0.0014	0.0095 ± 0.0064	0.012 ± 0.0085	0.0055 ± 0.00071	0.0175 ± 0.0092
BT:B cell Proliferation	0.0085 ± 0.011	0.023 ± 0.0042	-0.0145 ± 0.011	0.005 ± 0.013	-0.0245 ± 0.019	-0.0025 ± 0.015	0.0205 ± 0.0064	0.024 ± 0.028	-0.029 ± 0.027	-0.0035 ± 0.013	-0.0145 ± 0.011	0.031 ± 0.041	0.0315 ± 0.057	-0.0185 ± 0.021	0.0115 ± 0.053	0.016 ± 0.016	0.0415 ± 0.005	0.0475 ± 0.033
